The source of these data is US9669095B2, “Cyclosporin analogues for preventing or treating hepatitis C infection” (Enanta Pharmaceuticals, Inc., priority 2014, dated 2017).

Each structure is given as a SMILES string. *1 amine or outer side, *2 acyl side, *3 side chain or, on linkers, in order; H or OH if unused. Where a SMILES comes first, the peptide text is derived from it. [ ]: non-standard residue; d: D form. X1 = C/C=C/C[C@@H](C)C1ON([*:1])[C@@H]1C(=O)[*:2]; X2 = CNCC(C)(C)[C@@H](C(=O)[*:2])N(C)[*:1]; NMeL = CN[C@@H](CC(C)C)C(=O)O; NMeV = CN[C@H](C(=O)O)C(C)C; dNMeA = CN[C@H](C)C(=O)O; Abu = CC[C@H](N)C(=O)O

The assay has as its system HCV 1a genotype. It counts as cell-based, hepatitis C virus. The following applies: Genotype-1a replicon, Luciferase assay, 72 hours. On the technique in general: In antiviral work, replicon cells carry a viral genome segment that copies itself.

For the compound `C/C=C/C[C@@H](C)C1ON2C(=O)[C@H](C(C)C)N(C)C(=O)[C@H](CC(C)C)N(C)C(=O)[C@H](CC(C)C)N(C)C(=O)[C@@H](C)NC(=O)[C@H](C)NC(=O)[C@H](CC(C)C)N(C)C(=O)[C@H](C(C)C)NC(=O)[C@H](C(C)(C)CNC)N(C)C(=O)[C@@H](C)N(C)C(=O)[C@H](CC)NC(=O)[C@H]12` (stereo partly shown) [Example 1] (cyclo(A[dA][NMeL][NMeL][NMeV][X1][Abu][dNMeA][X2]V[NMeL])), the EC50 (usually the concentration that produces a half-maximal response) was in the range of 0.01 to 0.1 µM.
